Laboratory results reported in article PMC11091072, “Targeting bacterial nickel transport with aspergillomarasmine A suppresses virulence-associated Ni-dependent enzymes” (Nature Communications, 2024).
“And” between values parts separate entries of the source, which are not always exact repeats. Equal entries are not always repeated. “Also recorded” adds a separate entry of the source. Where two headings read alike, the source gives them in different places.

Legend:
[1] = biological target: T1, NikA (Klebsiella pneumoniae, UniProt A6TFA3); format: cell-based; conditions: 250 μM
T1 sequence (A6TFA3 entry or part of it): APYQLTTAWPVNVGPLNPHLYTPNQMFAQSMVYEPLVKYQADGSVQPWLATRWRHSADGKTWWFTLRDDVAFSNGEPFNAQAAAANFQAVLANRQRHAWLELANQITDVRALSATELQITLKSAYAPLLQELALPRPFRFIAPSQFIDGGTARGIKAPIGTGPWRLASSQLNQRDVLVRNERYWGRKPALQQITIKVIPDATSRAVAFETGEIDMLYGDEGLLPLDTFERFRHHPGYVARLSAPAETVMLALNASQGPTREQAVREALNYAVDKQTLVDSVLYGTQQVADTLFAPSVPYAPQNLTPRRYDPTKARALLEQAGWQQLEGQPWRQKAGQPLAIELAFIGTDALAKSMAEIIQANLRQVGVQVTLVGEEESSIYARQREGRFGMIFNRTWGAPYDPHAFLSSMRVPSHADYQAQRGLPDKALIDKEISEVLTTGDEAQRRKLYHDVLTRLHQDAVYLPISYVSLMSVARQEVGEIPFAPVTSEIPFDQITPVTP

[2] = Competitive ITC of AMA, Zn2+ and Ni2+ (Ni2+ affinity of AMA); format: binding; conditions: competition ITC, 25 mM Tris-HCl, 150 mM NaCl, pH 7.5, 37 °C; estimated; read-out: KD for Ni^2+
[3] = system: struvite crystallization in K. pneumoniae cultures; experiment: Struvite crystal nucleation in artificial urine cultures; format: cell-based, Klebsiella pneumoniae
Description: A The metal complexed structure, selectivity, and affinity of AMA. The constituents of AMA are labeled L-aspartate (L-Asp) and 2,3-diaminopropionic acid (APA). B Dose-response urease inhibition assays in K. pneumoniae. […] C Dose-response effect of AMA and Zn-AMA on the nucleation of struvite crystals in K. pneumoniae cultures grown in artificial urine. Crystals were examined microscopically in 96-well plates and visually quantified. […] The data represent the representative mean of two replicates. D Quantification of planktonic growth and crystal violet-stained biofilms of K. pneumoniae grown in artificial urine and varying concentrations of Zn-AMA. […] Data represent mean ± s.d. of four technical replicates. E ICP-MS quantification of cellular ^60Ni and ^66Zn content in K. pneumoniae untreated or treated with 200 μM AMA, or Zn-AMA. […] Whole-cell hydrogenase assays were performed by adding benzyl viologen (BV) at a final concentration of 1 mg/mL and monitoring its reduction at an absorbance of 630 nm. Data represent the mean of two technical replicates.
FIG S5 Microscopic detection of struvite crystals grown in artificial urine cultures of K. pneumoniae. Top row, the concentration-dependent effect of AMA on struvite formation. Bottom row, the concentration-dependent effect of Zn-AMA on struvite formation.
Bacteria were grown in 96 well flat-bottom plates for 24h at 37 °C. Brightfield micrographs were taken with a BioTek Cytation cell imaging reader at 4x magnification. Four images were taken per well and were digitally stitched to generate whole-well images. […]

[4] = read-out: KD for Zn^2+; cited from earlier work
[5] = biological target: T1, NikA; format: binding
[6] = system: K. pneumoniae ATCC 33495; experiment: Galleria mellonella infection model; format: in vivo; conditions: for survival curve event per larva: K. pneumoniae + 7.5 μg/mL Zn-AMA, one cell per larva
Experimental: (§1) The cell suspensions were mixed at an equal volume of 300 μg/mL Zn-AMA before injection. The larvae were each injected with 10 μL ([…]) of bacterial suspension with and without Zn-AMA or PBS. Ten larvae were used per group, incubated at 30 °C, and monitored on a 24-hour cycle. Fresh G. mellonella larvae were obtained from The Dragon Lair (www.thedragonlair.ca).

[7] = system: S. aureus USA300 ureC::tn; experiment: Galleria mellonella infection model; format: in vivo; conditions: for survival curve event per larva: S. aureus ureC::Tn + 7.5 μg/mL Zn-AMA, one cell per larva
Experimental: as §1

[8] = system: S. aureus USA300; experiment: Galleria mellonella infection model; format: in vivo; conditions: for survival curve event per larva: S. aureus + 7.5 μg/mL Zn-AMA, one cell per larva
Experimental: as §1

[9] = system: NikA; format: binding, Klebsiella pneumoniae; conditions: 100 μM
[10] = system: K. pneumoniae urease activity (whole cell); experiment: Checkerboard analysis of Zn-AMA and AHA on urease activity; format: cell-based, Klebsiella pneumoniae
Experimental: To guide our exploration of the mode of action of Zn-AMA, we investigated whether a chemical-chemical interaction occurs with the urease inhibitor AHA. […] We subsequently performed inductively coupled plasma mass spectrometry (ICP-MS) analyses to evaluate the intracellular Ni^2+ and Zn^2+ content of K. pneumoniae.
K. pneumoniae whole-cell urease activity was determined with artificial urine containing 0.2% (w/v) casamino acids and 0.01% (w/v) phenol red in 96-well plates. For the growth of S. aureus in artificial urine, the medium was supplemented with 10% LB. After 20–24 hours of growth, bacteria were removed using 0.45 μm filter plates, and the final A550 of the medium was measured using a plate reader.
FIG S7 Evaluation of Zn-AMA as a direct inhibitor of urease. A) Checkerboard analysis of Zn-AMA and AHA on urease activity of K.
pneumoniae after growth for 24 h at 37 °C artificial urine. pH is represented by the color scale determined with phenol red. […]

Structure (SMILES): N[C@@H](CN[C@@H](CN[C@@H](CC(=O)O)C(=O)O)C(=O)O)C(=O)O [AMA, aspergillomarasmine A]
- NikA thermal stability in cells (CETSA) [1]: barely detectable at 60 °C
- Kd [2]: ~0.08 nM and 0.08 nM
- Struvite crystal quantification (count) ([3]; 3.12 μM): 59 and 42
- Struvite crystal quantification (count) ([3]; 6.25 μM): 99 and 82
- Struvite crystal quantification (count) ([3]; 12 μM): 74 and 95
- Struvite crystal quantification (count) ([3]; 25 μM): 68 and 103
- Struvite crystal quantification (count) ([3]; 50 μM): 72 and 91
- Struvite crystal quantification (count) ([3]; 100 μM): 70 and 83
- Struvite crystal quantification (count) ([3]; 200 μM): 36 and 49
- Kd [4]: 0.2 nM

Structure (SMILES): N[C@@H](CN[C@@H](CN[C@@H](CC(=O)O)C(=O)O)C(=O)O)C(=O)O.[Zn+2] [Zn-AMA]
- fold greater KD (weaker affinity) relative to Ni-(L-His)2 [5]: 14 fold
- n (stoichiometry, ITC) ([5]; 37 °C, pH 7.5): 0.78
- ∆G ([5]; 37 °C, pH 7.5): -7.3 kcal/mol
- ∆H ([5]; 37 °C, pH 7.5): -11.6 kcal/mol
- −T∆S ([5]; 37 °C, pH 7.5): 4.3 kcal/mol
- Kd ([5]; read-out: KD for NikA (ITC), 25 mM Tris-HCl, 150 mM NaCl, 0.1% Triton X-100, pH 7.5, 37 °C): 6800 ± 400 nM
- survival curve event per larva ([6]; day 1 post infection): 1
- survival curve event per larva ([6]; day 2 post infection): 1
- survival curve event per larva ([6]; day 3 post infection): 1
- survival curve event per larva ([6]; day 5 post infection): 1
- G. mellonella larvae survival ([6]; K. pneumoniae infection, 7.5 mg/kg, seven days): significantly enhance the survival; also recorded: effective monotherapy
- G. mellonella larvae survival ([7]; S. aureus USA300 ureC::tn infection, 7.5 mg/kg): no effect on the survival; also recorded: no significant survival benefit
- survival curve event per larva ([7]; day 1 post infection): 1
- survival curve event per larva ([7]; day 2 post infection): 1
- survival curve event per larva ([7]; day 3 post infection): 1
- survival curve event per larva ([7]; day 5 post infection): 1
- survival curve event per larva ([8]; day 1 post infection): 1
- survival curve event per larva ([8]; day 2 post infection): 1
- survival curve event per larva ([8]; day 3 post infection): 1
- survival curve event per larva ([8]; day 5 post infection): 1
- survival curve event per larva ([8]; day 7 post infection): 0
- G. mellonella larvae survival ([8]; S. aureus USA300 infection, 7.5 mg/kg, seven days): significantly enhance the survival; also recorded: effective monotherapy
- effect on stability of recombinant NikA [9]: increase NikA’s stability
- Struvite crystal quantification (count) ([3]; 3.12 μM): 25 and 43
- Struvite crystal quantification (count) ([3]; 6.25 μM): 42 and 62
- Struvite crystal quantification (count) ([3]; 12 μM): 48 and 82
- Struvite crystal quantification (count) ([3]; 50 μM): 0
- Struvite crystal quantification (count) ([3]; 100 μM): 0
- Struvite crystal quantification (count) ([3]; 200 μM): 0
- effect on struvite crystals ([3]; K. pneumoniae, artificial urine): robustly prevented the appearance of struvite crystals
- Urease-dependent pH change (pH) ([10]; Zn-AMA 0.39 μM, AHA 0 mM): 8.26
- Urease-dependent pH change (pH) ([10]; Zn-AMA 0.39 μM, AHA 0.1 mM): 8.14
- Urease-dependent pH change (pH) ([10]; Zn-AMA 0.39 μM, AHA 0.2 mM): 8.05
- Urease-dependent pH change (pH) ([10]; Zn-AMA 0.39 μM, AHA 0.4 mM): 7.76
- Urease-dependent pH change (pH) ([10]; Zn-AMA 0.39 μM, AHA 0.5 mM): 8.22
- Urease-dependent pH change (pH) ([10]; Zn-AMA 0.39 μM, AHA 0.8 mM): 7.29
- Urease-dependent pH change (pH) ([10]; Zn-AMA 0.39 μM, AHA 1.6 mM): 6.70
- Urease-dependent pH change (pH) ([10]; Zn-AMA 0.78 μM, AHA 0 mM): 8.08
- Urease-dependent pH change (pH) ([10]; Zn-AMA 0.78 μM, AHA 0.1 mM): 7.95
- Urease-dependent pH change (pH) ([10]; Zn-AMA 0.78 μM, AHA 0.2 mM): 7.81
- Urease-dependent pH change (pH) ([10]; Zn-AMA 0.78 μM, AHA 0.4 mM): 7.50
- Urease-dependent pH change (pH) ([10]; Zn-AMA 0.78 μM, AHA 0.5 mM): 8.01
- Urease-dependent pH change (pH) ([10]; Zn-AMA 0.78 μM, AHA 0.8 mM): 7.03
- Urease-dependent pH change (pH) ([10]; Zn-AMA 0.78 μM, AHA 1.6 mM): 6.68
- Urease-dependent pH change (pH) ([10]; Zn-AMA 1.56 μM, AHA 0 mM): 7.83
- Urease-dependent pH change (pH) ([10]; Zn-AMA 1.56 μM, AHA 0.1 mM): 7.46
- Urease-dependent pH change (pH) ([10]; Zn-AMA 1.56 μM, AHA 0.2 mM): 7.19
- Urease-dependent pH change (pH) ([10]; Zn-AMA 1.56 μM, AHA 0.4 mM): 6.86
- Urease-dependent pH change (pH) ([10]; Zn-AMA 1.56 μM, AHA 0.5 mM): 7.51
- Urease-dependent pH change (pH) ([10]; Zn-AMA 1.56 μM, AHA 0.8 mM): 6.64
- Urease-dependent pH change (pH) ([10]; Zn-AMA 1.56 μM, AHA 1.6 mM): 6.51
- Urease-dependent pH change (pH) ([10]; Zn-AMA 3.12 μM, AHA 0 mM): 7.23
- Urease-dependent pH change (pH) ([10]; Zn-AMA 3.12 μM, AHA 0.1 mM): 6.85
- Urease-dependent pH change (pH) ([10]; Zn-AMA 3.12 μM, AHA 0.2 mM): 6.78
- Urease-dependent pH change (pH) ([10]; Zn-AMA 3.12 μM, AHA 0.4 mM): 6.74
- Urease-dependent pH change (pH) ([10]; Zn-AMA 3.12 μM, AHA 0.5 mM): 6.97
- Urease-dependent pH change (pH) ([10]; Zn-AMA 3.12 μM, AHA 0.8 mM): 6.56
- Urease-dependent pH change (pH) ([10]; Zn-AMA 3.12 μM, AHA 1.6 mM): 6.46
- Urease-dependent pH change (pH) ([10]; Zn-AMA 6.25 μM, AHA 0 mM): 6.63
- Urease-dependent pH change (pH) ([10]; Zn-AMA 6.25 μM, AHA 0.1 mM): 6.57
- Urease-dependent pH change (pH) ([10]; Zn-AMA 6.25 μM, AHA 0.2 mM): 6.55
- Urease-dependent pH change (pH) ([10]; Zn-AMA 6.25 μM, AHA 0.4 mM): 6.53
- Urease-dependent pH change (pH) ([10]; Zn-AMA 6.25 μM, AHA 0.5 mM): 6.62
- Urease-dependent pH change (pH) ([10]; Zn-AMA 6.25 μM, AHA 0.8 mM): 6.47
- Urease-dependent pH change (pH) ([10]; Zn-AMA 6.25 μM, AHA 1.6 mM): 6.42
- Urease-dependent pH change (pH) ([10]; Zn-AMA 12.5 μM, AHA 0 mM): 6.63
- Urease-dependent pH change (pH) ([10]; Zn-AMA 12.5 μM, AHA 0.1 mM): 6.46
- Urease-dependent pH change (pH) ([10]; Zn-AMA 12.5 μM, AHA 0.2 mM): 6.52
- Urease-dependent pH change (pH) ([10]; Zn-AMA 12.5 μM, AHA 0.4 mM): 6.45
- Urease-dependent pH change (pH) ([10]; Zn-AMA 12.5 μM, AHA 0.5 mM): 6.47
- Urease-dependent pH change (pH) ([10]; Zn-AMA 12.5 μM, AHA 0.8 mM): 6.43
- Urease-dependent pH change (pH) ([10]; Zn-AMA 12.5 μM, AHA 1.6 mM): 6.40
- interaction with AHA (checkerboard) ([10]; combination of Zn-AMA and AHA): synergistic
